Patent US9839642B2, “Beta-tetrazolyl-propionic acids as metallo-beta-lactamase inhibitors” (priority 2014, dated 2017)
Like-named read-outs stand apart in the source and are kept apart here.

Key:
[1] = test system: Klebsiella pneumoniae expressing VIM-1 (IHMA599644); experiment: Antibiotic potentiation activity: synergistic concentration (MITC95) with imipenem, growth by OD600; type: cell-based
Outline: (§1)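 Colonies from overnight agar plates (35 °C) were suspended in saline and diluted 1:100 into 1.1× CAMHB. Inhibitor (final 200 μM to 0.195 μM) was combined with imipenem at 1 or 4 μg/ml, incubated 22–24 h at 35 °C, and absorbance read; MITC95 is the lowest inhibitor concentration giving 95% growth inhibition.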

[2] = test system: Serratia marcescens expressing IMP-1 (CL5741); experiment: as above; type: cell-based
Outline: as §1

[3] = test system: Escherichia coli expressing NDM-1 (CLB30005); experiment: as above; type: cell-based
Outline: as §1

VIM-1 = VIM-1 (Pseudomonas aeruginosa, UniProt A0A0F7KYQ8); experiment: Enzyme activity: determination of IC50, fluorescence assay with CCF2-FA substrate; type: biochemical; details: CCF2-FA 1.25 μM, 2 hours at 25° C., read-out: VIM1 IC50
Outline: (§2)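 Enzyme at 1 pM (NDM-1), 2 pM (IMP-1) or 30 pM (VIM-1) was incubated with inhibitor (20 μM to 0.00063 μM) and 1.25 μM CCF2-FA in 100 mM KH2PO4 pH 7, 0.005% Tween-20, 10 μM ZnSO4 for 2 hours at 25° C. Fluorescence was read at ex 405/em 460 nm; IC50 from 4-parameter fit.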

NDM-1 = NDM-1 (Klebsiella pneumoniae, UniProt C7C422); experiment: as above; type: biochemical; details: CCF2-FA 1.25 μM, 2 hours at 25° C., read-out: NDM1 IC50
Outline: as §2

IMP-1 = IMP-1 (Serratia marcescens, UniProt P52699); experiment: as above; type: biochemical; details: CCF2-FA 1.25 μM, 2 hours at 25° C., read-out: IMP1 IC50
Outline: as §2

[4] = 95% inhibition of bacterial growth, strain IHMA599644
[5] = 95% inhibition of bacterial growth, strain CL5741
[6] = 95% inhibition of bacterial growth, strain CLB30005
[7] = K. pneumoniae IHMA599644 (VIM-1), 95% inhibition of growth
[8] = S. marcescens CL5741 (IMP-1), 95% inhibition of growth
[9] = E. coli CLB30005 (NDM-1), 95% inhibition of growth

Sequence of IMP-1 (P52699 19-246, looked up, species assumed): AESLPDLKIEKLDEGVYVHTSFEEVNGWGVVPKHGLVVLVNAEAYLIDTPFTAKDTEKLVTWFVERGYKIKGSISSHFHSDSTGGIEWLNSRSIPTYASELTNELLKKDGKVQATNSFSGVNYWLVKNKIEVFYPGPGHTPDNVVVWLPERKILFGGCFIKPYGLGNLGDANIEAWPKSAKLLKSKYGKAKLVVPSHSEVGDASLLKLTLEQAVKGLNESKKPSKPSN
Sequence of NDM-1 (C7C422 29-270, looked up, species assumed): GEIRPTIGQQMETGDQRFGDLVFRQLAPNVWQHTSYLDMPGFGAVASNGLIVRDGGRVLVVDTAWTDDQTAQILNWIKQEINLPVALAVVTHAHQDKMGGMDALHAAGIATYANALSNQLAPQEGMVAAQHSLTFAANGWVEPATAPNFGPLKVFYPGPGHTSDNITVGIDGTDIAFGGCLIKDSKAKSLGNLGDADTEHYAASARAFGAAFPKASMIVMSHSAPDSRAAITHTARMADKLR

SMILES: CCCCC(C(=O)O)[C@@H](Cc1ccc(-c2ccc(S(C)(=O)=O)cc2)cc1)c1nn[nH]n1 (stereo in doubt) [Example 183, (2R)-2-[(1R)-2-[4′-(methylsulfonyl)biphenyl-4-yl]-1-(2H-tetrazol-5-yl)ethyl]hexanoic acid]
- VIM1 KP599644 MITC95 [1, 4]: >200 µM
- IMP1 SM5741 MITC95 [2, 5]: >200 µM
- NDM1 EC30005 MITC95 [3, 6]: >200 µM
- IC50 (VIM-1; enzyme 30 pM): 700 nM
- IC50 (NDM-1; enzyme 1 pM): 660 nM
- IC50 (IMP-1; enzyme 2 pM): 200 nM

SMILES: CCC[C@H](C(=O)O)[C@H](Cc1ccc(CCN2CCCC2=O)cc1)c1nn[nH]n1 [Example 253, (2S)-2-[(1S)-2-{4-[2-(2-oxopyrrolidin-1-yl)ethyl]phenyl}-1-(2H-tetrazol-5-yl)ethyl]pentanoic acid]
- VIM1 KP599644 MITC95 [1, 7]: 50 µM
- IMP1 SM5741 MITC95 [2, 8]: 38 µM
- NDM1 EC30005 MITC95 [3, 9]: 12.5 µM
- IC50 (VIM-1; VIM-1 enzyme 30 pM): 9.1 nM
- IC50 (NDM-1; NDM-1 enzyme 1 pM): 34 nM
- IC50 (IMP-1; IMP-1 enzyme 2 pM): 97 nM

SMILES: CCCC(C)[C@H](C(=O)O)[C@H](Cc1ccccc1)c1nnn[nH]1 (stereo partly drawn) [Example 18, (2S)-3-methyl-2-((S)-2-phenyl-1-(1H-tetrazol-5-yl)ethyl)hexanoic acid]
- VIM1 KP599644 MITC95 [1, 4]: 200 µM
- IMP1 SM5741 MITC95 [2, 5]: 37.5 µM
- NDM1 EC30005 MITC95 [3, 6]: 18.8 µM
- IC50 (VIM-1; enzyme 30 pM): 36 nM
- IC50 (NDM-1; enzyme 1 pM): 26 nM
- IC50 (IMP-1; enzyme 2 pM): 30 nM

SMILES: CCC[C@H](C(=O)O)[C@H](Cc1ccc(-c2ccc(CN(C)C)cc2)cc1)c1nnn[nH]1 [Example 240, (2S)-2-[(1S)-2-{4′-[(dimethylamino)methyl]biphenyl-4-yl}-1-(1H-tetrazol-5-yl)ethyl]pentanoic acid]
- VIM1 KP599644 MITC95 [1, 4]: 125 µM
- IMP1 SM5741 MITC95 [2, 5]: 7.8 µM
- NDM1 EC30005 MITC95 [3, 6]: 25 µM
- IC50 (VIM-1; enzyme 30 pM): 6.5 nM
- IC50 (NDM-1; enzyme 1 pM): 100 nM
- IC50 (IMP-1; enzyme 2 pM): 75 nM

SMILES: CCC[C@H](C(=O)O)[C@H](Cc1ccc(C2=CCCN(C)C2)cc1)c1nnn[nH]1 [Example 243, (2S)-2-[(1S)-2-[4-(1-methyl-1,2,5,6-tetrahydropyridin-3-yl)phenyl]-1-(1H-tetrazol-5-yl)ethyl]pentanoic acid]
- VIM1 KP599644 MITC95 [1, 4]: 25 µM
- IMP1 SM5741 MITC95 [2, 5]: 25 µM
- NDM1 EC30005 MITC95 [3, 6]: 18.8 µM
- IC50 (VIM-1; enzyme 30 pM): 3.8 nM
- IC50 (NDM-1; enzyme 1 pM): 400 nM
- IC50 (IMP-1; enzyme 2 pM): 500 nM

SMILES: N#CCCCC[C@H](C(=O)O)[C@H](Cc1ccccc1)c1nnn[nH]1 [Example 33, (S)-6-cyano-2-((S)-2-phenyl-1-(1H-tetrazol-5-yl)ethyl)hexanoic acid]
- VIM1 KP599644 MITC95 [1, 4]: >200 µM
- IMP1 SM5741 MITC95 [2, 5]: 50 µM
- NDM1 EC30005 MITC95 [3, 6]: 75 µM
- IC50 (VIM-1; enzyme 30 pM): 110 nM
- IC50 (NDM-1; enzyme 1 pM): 390 nM
- IC50 (IMP-1; enzyme 2 pM): 2100 nM

SMILES: CC(C)=CCCC(C(=O)O)[C@H](Cc1ccccc1)c1nnn[nH]1 (stereo in doubt) [Example 15, (2R)-6-methyl-2-[(1S)-2-phenyl-1-(1H-tetrazol-5-yl)ethyl]hept-5-enoic acid]
- VIM1 KP599644 MITC95 [1, 4]: 200 µM
- IMP1 SM5741 MITC95 [2, 5]: >200 µM
- NDM1 EC30005 MITC95 [3, 6]: 15.6 µM
- IC50 (VIM-1; enzyme 30 pM): 120 nM
- IC50 (NDM-1; enzyme 1 pM): 380 nM
- IC50 (IMP-1; enzyme 2 pM): 4800 nM

SMILES: CC(C)CCC[C@H](C(=O)O)[C@H](Cc1ccccc1)c1nnn[nH]1 [Example 1, (S)-6-Methyl-2-((S)-2-phenyl-1-(1H-tetrazol-5-yl)ethyl)heptanoic acid]
- VIM1 KP599644 MITC95 [1, 4]: >200 µM
- IMP1 SM5741 MITC95 [2, 5]: 138 µM
- NDM1 EC30005 MITC95 [3, 6]: 75 µM
- IC50 (VIM-1; enzyme 30 pM): > 20000 nM
- IC50 (NDM-1; enzyme 1 pM): 870 nM
- IC50 (IMP-1; enzyme 2 pM): 280 nM

SMILES: CC(C)C[C@H](C(=O)O)[C@H](Cc1ccccc1)c1nnn[nH]1 [Example 7, (2S)-4-methyl-2-[(2S)-2-phenyl-1-(1H-tetrazol-5-yl)ethyl]pentanoic acid]
- VIM1 KP599644 MITC95 [1, 4]: 37.5 µM
- IMP1 SM5741 MITC95 [2, 5]: 62.5 µM
- NDM1 EC30005 MITC95 [3, 6]: 18.8 µM
- IC50 (VIM-1; enzyme 30 pM): 3.3 nM
- IC50 (NDM-1; enzyme 1 pM): 19 nM
- IC50 (IMP-1; enzyme 2 pM): 52 nM

SMILES: CCC[C@H](C(=O)O)[C@H](Cc1ccc(-c2cncc(N3CCN(C)CC3)c2)cc1)c1nn[nH]n1 [Example 190, (2S)-2-[(1S)-2-{4-[5-(4-methylpiperazin-1-yl)pyridin-3-yl]phenyl}-1-(2H-tetrazol-5-yl)ethyl]pentanoic acid]
- VIM1 KP599644 MITC95 [1, 4]: 75 µM
- IMP1 SM5741 MITC95 [2, 5]: 38 µM
- NDM1 EC30005 MITC95 [3, 6]: 9.4 µM
- IC50 (VIM-1; enzyme 30 pM): 5.4 nM
- IC50 (NDM-1; enzyme 1 pM): 110 nM
- IC50 (IMP-1; enzyme 2 pM): 610 nM

SMILES: O=C(O)[C@@H](C1CCOCC1)[C@H](Cc1ccccc1)c1nnn[nH]1 [Example 12, (2S,3S)-4-phenyl-2-(tetrahydro-2H-pyran-4-yl)-3-(1H-tetrazol-5-yl)butanoic acid]
- VIM1 KP599644 MITC95 [1, 4]: 200 µM
- IMP1 SM5741 MITC95 [2, 5]: 200 µM
- NDM1 EC30005 MITC95 [3, 6]: 12.5 µM
- IC50 (VIM-1; enzyme 30 pM): 84.7 nM
- IC50 (NDM-1; enzyme 1 pM): 99 nM
- IC50 (IMP-1; enzyme 2 pM): 1050 nM

SMILES: CCC[C@H](C(=O)O)[C@H](Cc1ccc(-c2csc(N3CCOCC3)n2)cc1)c1nn[nH]n1 [Example 208, (2S)-2-[(1S)-2-[4-(2-morpholin-4-yl-1,3-thiazol-4-yl)phenyl]-1-(2H-tetrazol-5-yl)ethyl]pentanoic acid]
- VIM1 KP599644 MITC95 [1, 4]: 200 µM
- IMP1 SM5741 MITC95 [2, 5]: 18.8 µM
- NDM1 EC30005 MITC95 [3, 6]: 25 µM
- IC50 (VIM-1; enzyme 30 pM): 16 nM
- IC50 (NDM-1; enzyme 1 pM): 61 nM
- IC50 (IMP-1; enzyme 2 pM): 100 nM

SMILES: CCC(C)[C@H](C(=O)O)[C@H](Cc1ccccc1)c1nnn[nH]1 (stereo partly drawn) [Example 19, (2S)-3-methyl-2-((S)-2-phenyl-1-(1H-tetrazol-5-yl)ethyl)pentanoic acid]
- VIM1 KP599644 MITC95 [1, 4]: 50 µM
- IMP1 SM5741 MITC95 [2, 5]: 50 µM
- NDM1 EC30005 MITC95 [3, 6]: 9.4 µM
- IC50 (VIM-1; enzyme 30 pM): 24 nM
- IC50 (NDM-1; enzyme 1 pM): 31 nM
- IC50 (IMP-1; enzyme 2 pM): 62 nM

SMILES: CCC[C@H](C(=O)O)[C@H](Cc1ccc(CN2CCN(C)CC2)cc1)c1nn[nH]n1 [Example 251, (2S)-2-[(1S)-2-{4-[(4-methylpiperazin-1-yl)methyl]phenyl}-1-(2H-tetrazol-5-yl)ethyl]pentanoic acid]
- VIM1 KP599644 MITC95 [1, 7]: 75 µM
- IMP1 SM5741 MITC95 [2, 8]: 38 µM
- NDM1 EC30005 MITC95 [3, 9]: 8.3 µM
- IC50 (VIM-1; VIM-1 enzyme 30 pM): 430 nM
- IC50 (NDM-1; NDM-1 enzyme 1 pM): 330 nM
- IC50 (IMP-1; IMP-1 enzyme 2 pM): 1300 nM

SMILES: CCC[C@H](C(=O)O)[C@H](Cc1ccc(-c2ccc3c(c2)CCNC3)cc1)c1nnn[nH]1 [Example 237, (2S)-2-[(1S)-2-[4-(1,2,3,4-tetrahydroisoquinolin-6-yl)phenyl]-1-(1H-tetrazol-5-yl)ethyl]pentanoic acid]
- VIM1 KP599644 MITC95 [1, 4]: 38 µM
- IMP1 SM5741 MITC95 [2, 5]: 4.7 µM
- NDM1 EC30005 MITC95 [3, 6]: 9.4 µM
- IC50 (VIM-1; enzyme 30 pM): 4 nM
- IC50 (NDM-1; enzyme 1 pM): 88 nM
- IC50 (IMP-1; enzyme 2 pM): 88 nM

SMILES: CCC[C@H](C(=O)O)[C@H](Cc1ccc(S(C)(=O)=O)cc1)c1nn[nH]n1 [Example 49, (S)-2-((S)-2-(4-(methylsulfonyl)phenyl)-1-(2H-tetrazol-5-yl)ethyl)pentanoic acid]
- VIM1 KP599644 MITC95 [1, 4]: 50 µM
- IMP1 SM5741 MITC95 [2, 5]: 37.5 µM
- NDM1 EC30005 MITC95 [3, 6]: 6.2 µM
- IC50 (VIM-1; enzyme 30 pM): 7.6 nM
- IC50 (NDM-1; enzyme 1 pM): 69 nM
- IC50 (IMP-1; enzyme 2 pM): 720 nM

SMILES: NC(=O)CCCC[C@H](C(=O)O)[C@H](Cc1ccccc1)c1nnn[nH]1 [Example 35, (S)-7-amino-7-oxo-2-((S)-2-phenyl-1-(1H-tetrazol-5-yl)ethyl)heptanoic acid]
- VIM1 KP599644 MITC95 [1, 4]: >200 µM
- IMP1 SM5741 MITC95 [2, 5]: >200 µM
- NDM1 EC30005 MITC95 [3, 6]: 100 µM
- IC50 (VIM-1; enzyme 30 pM): 210 nM
- IC50 (NDM-1; enzyme 1 pM): 1400 nM
- IC50 (IMP-1; enzyme 2 pM): 3100 nM
